Source: patent US12577257B2, “Heterocyclic compounds” (Hoffmann-La Roche Inc., priority 2018, dated 2026)

Target: T1, MAGL (Homo sapiens, UniProt Q99685)
T1 sequence (Q99685 1-303): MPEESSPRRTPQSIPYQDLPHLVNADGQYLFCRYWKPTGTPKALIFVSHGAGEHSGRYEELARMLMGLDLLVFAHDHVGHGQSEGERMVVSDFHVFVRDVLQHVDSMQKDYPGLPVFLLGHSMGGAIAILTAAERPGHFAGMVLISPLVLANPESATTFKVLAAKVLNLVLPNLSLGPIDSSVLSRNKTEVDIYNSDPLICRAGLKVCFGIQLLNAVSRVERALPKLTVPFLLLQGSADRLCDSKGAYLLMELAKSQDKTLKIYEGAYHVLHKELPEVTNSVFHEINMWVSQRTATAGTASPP
Assay: MAGL inhibition, Table 1 values with no assay marker (2-AG or 4-NPA assay not stated)
Assay type: biochemical
Conditions: not given
Description: Compounds were profiled for MAGL inhibitory activity by measuring the enzymatic activity of MAGL by following the hydrolysis of 4-nitrophenylacetate resulting in 4-nitrophenol, which absorbs at 405-412 nm (G. G. Muccioli, G. Labar, D. M. Lambert, Chem. Bio. Chem. 2008, 9, 2704-2710). This assay is hereinafter abbreviated “4-NPA assay”.
The 4-NPA assay was carried out in 384 well assay plates (black with clear bottom, non-binding surface treated, Corning Ref. 3655) in a total volume of 40 μL. Compound dilutions were made in 100% DMSO (VWR Chemicals 23500.297) in a polypropylene plate in 3-fold dilution steps to give a final concentration range in the assay from 25 μM to 1.7 nM. 1 μL compound dilutions (100% DMSO) were added to 19 μL MAGL (recombinant wild-type) in assay buffer (50 mM TRIS (GIBCO, 15567-027), 1 mM EDTA (Fluka, 03690-100 ml)). The plate was shaked for 1 min at 2000 rpm (Variomag Teleshake) and then incubated for 15 min at RT. To start the reaction, 20 μL 4-Nitrophenylacetate (Sigma N-8130) in assay buffer with 6% EtOH was added. The final concentrations in the assay were 1 nM MAGL and 300 μM 4-Nitrophenylacetate. After shaking (1 min, 2000 rpm) and 5 min incubation at RT, the absorbance at 405 nm was measured for a first time (Molecular Devices, SpectraMax Paradigm). A second measurement was then done after incubation for 80 min at RT. From the two measurements, the slope was calculated by subtracting the first from the second measurement.
(§1) Alternatively, compounds were profiled for MAGL inhibitory activity by determining the enzymatic activity by following the hydrolysis of the natural substrate 2-arachidonoylglycerol resulting in arachidonic acid, which can be followed by mass spectrometry. This assay is hereinafter abbreviated “2-AG assay”.
(§2) The 2-AG assay was carried out in 384 well assay plates (PP, Greiner Cat #784201) in a total volume of 20 μL. Compound dilutions were made in 100% DMSO (VWR Chemicals 23500.297) in a polypropylene plate in 3-fold dilution steps to give a final concentration range in the assay from 12.5 μM to […]. 0.25 μL compound dilutions (100% DMSO) were added to 9 μL MAGL in assay buffer (50 mM TRIS (GIBCO, 15567-027), 1 mM EDTA (Fluka, 03690-100 ml), 0.01% (v/v) Tween. After shaking, the plate was incubated for 15 min at RT. To start the reaction, 10 μL 2-arachidonoylglycerol in assay buffer was added. The final concentrations in the assay was […] and 8 μM 2-arachidonoylglycerol. After shaking and 30 min incubation at RT, the reaction was quenched by the addition of 40 μL of acetonitrile containing 4 μM of d8-arachidonic acid. The amount of arachidonic acid was traced by an online SPE system (Agilent Rapidfire) coupled to a triple quadrupole mass spectrometer (Agilent 6460). A C18 SPE cartridge (G9205A) was used in an acetonitrile/water liquid setup. The mass spectrometer was operated in negative electrospray mode following the mass transitions 303.1→259.1 for arachidonic acid and 311.1→267.0 for d8-arachidonic acid. The activity of the compounds was calculated based on the ratio of intensities [arachidonic acid/d8-arachidonic acid].

| IC50 [nM] | Structure (SMILES) |
| --- | --- |
| 185 | O=C1CO[C@H]2CCN(C(=O)N3CC4(C3)CC(OCc3ccc(C(F)(F)F)cc3F)(C(F)(F)F)C4)C[C@H]2N1 [Example 44, (4aR,8aS)-6-(6-((2-fluoro-4-(trifluoromethyl)benzyl)oxy)-6-(trifluoromethyl)-2-azaspiro[3.3]heptane-2-carbonyl)hexahydro-2H-pyrido[4,3-b][1,4]oxazin-3(4H)-one] |
| 37 | O=C1CO[C@H]2CCN(C(=O)N3CC4(CC(c5ccc(C(F)(F)F)cc5F)C4)C3)C[C@H]2N1 [Example 45, (4aR,8aS)-6-(6-(2-fluoro-4-(trifluoromethyl)phenyl)-2-azaspiro[3.3]heptane-2-carbonyl)hexahydro-2H-pyrido[4,3-b][1,4]oxazin-3(4H)-one] |

Target: T1, MAGL
Assay: 2-AG assay: MAGL hydrolysis of 2-arachidonoylglycerol to arachidonic acid, followed by mass spectrometry
Assay type: biochemical
Conditions: footnote [a]: measured in 2-AG assay
Description: as §1, §2

| Structure (SMILES) | IC50 [nM] |
| --- | --- |
| O=C1CO[C@H]2CCN(C(=O)N3CCC4(CC3)CN(Cc3ccc(C(F)(F)F)cc3F)C4)C[C@H]2N1 [Example 13, (4aR,8aS)-6-(2-(2-Fluoro-4-(trifluoromethyl)benzyl)-2,7-diazaspiro[3.5]nonane-7-carbonyl)hexahydro-2H-pyrido[4,3-b][1,4]oxazin-3(4H)-one] | 76.4 |
| O=C1CO[C@H]2CCN(C(=O)N3CCC4(CCN(Cc5ccc(C(F)(F)F)cc5F)C4)C3)C[C@H]2N1 (stereo partly drawn) [Example 14, (4aR,8aS)-6-(7-(2-Fluoro-4-(trifluoromethyl)benzyl)-2,7-diazaspiro[4.4]nonane-2-carbonyl)hexahydro-2H-pyrido[4,3-b][1,4]oxazin-3(4H)-one] | 268 |
| O=C1CO[C@H]2CCN(C(=O)N3CCC4(CN(Cc5ccc(C(F)(F)F)cc5F)C4)C3)C[C@H]2N1 [Example 15, (4aR,8aS)-6-(2-(2-Fluoro-4-(trifluoromethyl)benzyl)-2,6-diazaspiro[3.4]octane-6-carbonyl)hexahydro-2H-pyrido[4,3-b][1,4]oxazin-3(4H)-one] | 2030 |
| O=C1CO[C@H]2CCN(C(=O)N3CC4(C3)CN(S(=O)(=O)c3ccc(F)cc3Cl)C4)C[C@H]2N1 [Example 16, (4aR,8aS)-6-(6-((2-Chloro-4-fluorophenyl)sulfonyl)-2,6-diazaspiro[3.3]heptane-2-carbonyl)hexahydro-2H-pyrido[4,3-b][1,4]oxazin-3(4H)-one] | 228 |
| O=C1CO[C@H]2CCN(C(=O)N3CC4(C3)CN(S(=O)(=O)c3ccc(C(F)(F)F)cc3F)C4)C[C@H]2N1 [Example 17, (4aR,8aS)-6-(6-((2-Fluoro-4-(trifluoromethyl)phenyl)sulfonyl)-2,6-diazaspiro[3.3]heptane-2-carbonyl)hexahydro-2H-pyrido[4,3-b][1,4]oxazin-3(4H)-one] | 768 |
| Cc1ccc(COC2CC3(C2)CN(C(=O)N2CC[C@@H]4OCC(=O)N[C@@H]4C2)C3)cc1C(F)(F)F [Example 26, (4aR,8aS)-6-(6-((4-Methyl-3-(trifluoromethyl)benzyl)oxy)-2-azaspiro[3.3]heptane-2-carbonyl)hexahydro-2H-pyrido[4,3-b][1,4]oxazin-3(4H)-one] | 31 |
| O=C1CO[C@H]2CCN(C(=O)N3CCC4(CC3)CN(S(=O)(=O)c3ccc(F)cc3Cl)C4)C[C@H]2N1 [Example 27, (4aR,8aS)-6-(2-((2-Chloro-4-fluorophenyl)sulfonyl)-2,7-diazaspiro[3.5]nonane-7-carbonyl)hexahydro-2H-pyrido[4,3-b][1,4]oxazin-3(4H)-one] | 33.1 |
| O=C1CO[C@H]2CCN(C(=O)N3CC4(CC(OCc5ccc(C(F)(F)F)cc5F)C4)C3)C[C@H]2N1 [Example 28, (4aR,8aS)-6-(6-((2-Fluoro-4-(trifluoromethyl)benzyl)oxy)-2-azaspiro[3.3]heptane-2-carbonyl)hexahydro-2H-pyrido[4,3-b][1,4]oxazin-3(4H)-one] | 36.4 |
| CN([C@H]1COC2(CCN(C(=O)N3CC[C@@H]4OCC(=O)N[C@@H]4C3)CC2)C1)S(=O)(=O)c1ccccc1 [Example 30, N-Methyl-N-((R)-8-((4aR,8aS)-3-oxooctahydro-2H-pyrido[4,3-b][1,4]oxazine-6-carbonyl)-1-oxa-8-azaspiro[4.5]decan-3-yl)benzenesulfonamide] | 49.3 |
| O=C1CO[C@H]2CCN(C(=O)N3CCC4(CC3)CN(S(=O)(=O)c3ccc(C(F)(F)F)cc3)C4)C[C@H]2N1 [Example 37, (4aR,8aS)-6-(2-((4-(Trifluoromethyl)phenyl)sulfonyl)-2,7-diazaspiro[3.5]nonane-7-carbonyl)hexahydro-2H-pyrido[4,3-b][1,4]oxazin-3(4H)-one] | 389 |

More lines, now with the values ahead:

| IC50 [nM] | Structure (SMILES) |
| --- | --- |
| 28.9 | O=C1CO[C@H]2CCN(C(=O)N3CC4(CC(Oc5ccc(C(F)(F)F)cn5)C4)C3)C[C@H]2N1 [Example 25, (4aR,8aS)-6-(6-((5-(Trifluoromethyl)pyridin-2-yl)oxy)-2-azaspiro[3.3]heptane-2-carbonyl)hexahydro-2H-pyrido[4,3-b][1,4]oxazin-3(4H)-one] |
| 20.9 | CN([C@H]1COC2(CCN(C(=O)N3CC[C@@H]4OCC(=O)N[C@@H]4C3)CC2)C1)S(=O)(=O)c1ccc(F)cc1Cl [Example 24, 2-Chloro-4-fluoro-N-methyl-N-((R)-8-((4aR,8aS)-3-oxooctahydro-2H-pyrido[4,3-b][1,4]oxazine-6-carbonyl)-1-oxa-8-azaspiro[4.5]decan-3-yl)benzenesulfonamide] |
| 15.7 | O=C1CO[C@H]2CCN(C(=O)N3CC4(CN(Cc5ccc(C(F)(F)F)cc5F)C4)C3)C[C@H]2N1 [Example 12, (4aR,8aS)-6-(6-(2-Fluoro-4-(trifluoromethyl)benzyl)-2,6-diazaspiro[3.3]heptane-2-carbonyl)hexahydro-2H-pyrido[4,3-b][1,4]oxazin-3(4H)-one] |
| 11.3 | O=C1CO[C@H]2CCN(C(=O)N3CCC4(CC3)CC(Oc3ccc(F)cc3F)C4)C[C@H]2N1 [Example 40, (4aR,8aS)-6-[2-(2,4-Difluorophenoxy)-7-azaspiro[3.5]nonane-7-carbonyl]-4,4a,5,7,8,8a-hexahydropyrido[4,3-b][1,4]oxazin-3-one] |
| 4.8 | O=C1CO[C@H]2CCN(C(=O)N3CC4(CC(Oc5ccc(C(F)(F)F)c(C(F)(F)F)n5)C4)C3)C[C@H]2N1 [Example 23, (4aR,8aS)-6-(6-((5,6-Bis(trifluoromethyl)pyridin-2-yl)oxy)-2-azaspiro[3.3]heptane-2-carbonyl)hexahydro-2H-pyrido[4,3-b][1,4]oxazin-3(4H)-one] |
| 3.8 | O=C1CO[C@H]2CCN(C(=O)N3CC4(CC(Oc5cc(C(F)(F)F)c(C(F)(F)F)cn5)C4)C3)C[C@H]2N1 [Example 22, (4aR,8aS)-6-(6-((4,5-Bis(trifluoromethyl)pyridin-2-yl)oxy)-2-azaspiro[3.3]heptane-2-carbonyl)hexahydro-2H-pyrido[4,3-b][1,4]oxazin-3(4H)-one] |
| 2.1 | O=C1CO[C@H]2CCN(C(=O)N3CCC4(CC3)CC(Oc3ccc(F)cc3Cl)C4)C[C@H]2N1 [Example 42, (4aR,8aS)-6-[2-(2-Chloro-4-fluoro-phenoxy)-7-azaspiro[3.5]nonane-7-carbonyl]-4,4a,5,7,8,8a-hexahydropyrido[4,3-b][1,4]oxazin-3-one] |
| 1 | O=C1CO[C@H]2CCN(C(=O)N3CC4(CC(COc5ccc(C(F)(F)F)cc5F)C4)C3)C[C@H]2N1 [Example 43, (4aR,8aS)-6-[6-[[2-Fluoro-4-(trifluoromethyl)phenoxy]methyl]-2-azaspiro[3.3]heptane-2-carbonyl]-4,4a,5,7,8,8a-hexahydropyrido[4,3-b][1,4]oxazin-3-one] |
